# From ChEMBL document CHEMBL3085635, “Synthesis of structurally diverse benzosuberene analogues and their biological evaluation as anti-cancer agents” (Bioorg Med Chem, 2013)
# pIC50: −log10 of the molar value.
# Key:
# NCI-H460 = assay: Cytotoxicity against human NCI-H460 cells after 48 hrs by SRB assay; type: functional
# SK-OV-3 = assay: Cytotoxicity against human SKOV3 cells after 48 hrs by SRB assay; type: functional
# DU-145 = assay: Cytotoxicity against human DU145 cells after 48 hrs by SRB assay; type: functional
# [1] = Inhibition of calf brain tubulin polymerization after 15 mins by UV-visible spectrophotometry; design: species or system Bos taurus
SMILES,"GI50 (NCI-H460; Homo sapiens, NCI-H460, 48 h) [nM]","GI50 (SK-OV-3; Homo sapiens, SK-OV-3, 48 h) [nM]","GI50 (DU-145; Homo sapiens, DU-145, 48 h) [nM]",pIC50 [1],GI50 (NCI-H460) [nM],GI50 (SK-OV-3) [nM],GI50 (DU-145) [nM]
COc1ccc(C2=CCCCc3c2ccc(OC)c3OC)cc1OC,> 136000,> 89500,42500,< 4.40,–,–,–
COc1ccc2c(c1Cl)CCCC=C2c1cc(OC)c(OC)c(OC)c1,71.3,44.4,152,6.03,–,–,–
COc1ccc2c(c1F)CCCC=C2c1cc(OC)c(OC)c(OC)c1,5.47,7.51,18.9,6.05,–,–,–
COc1cc2c(c(OC)c1O)CCCC=C2c1cc(OC)c(OC)c(OC)c1,18000,7130,15700,< 4.40,–,–,–
COc1cc(C2=CCCCc3ccccc32)cc(OC)c1OC,32500,19100,22000,< 4.40,–,–,–
COc1ccc(C2=CCCCc3c2ccc(OC)c3O)cc1OC,262,33.4,109,6.13,–,–,–
COc1cc(C2=CCCCc3c2cc(OC)c(OC)c3O)cc(OC)c1OC,25900,18100,38400,< 4.40,–,–,–
COc1cc(C2=CCCCc3c2ccc(OC)c3OP(=O)(O)O)cc(OC)c1OC,7.96,–,9.51,< 4.40,–,–,–
COc1ccc2c(c1N)CCCC=C2c1cc(OC)c(OC)c(OC)c1,2.8,0.102,–,5.92,–,–,–
COc1ccc2c(c1NC(=O)[C@@H](N)CO)CCCC=C2c1cc(OC)c(OC)c(OC)c1 [listing 1 of 2 here],–,–,–,–,39000,36800,70500
COc1ccc2c(c1NC(=O)[C@@H](N)CO)CCCC=C2c1cc(OC)c(OC)c(OC)c1 [listing 2 of 2 here],53800,35000,69400,–,–,–,–
COc1ccc2c(c1O)CCCC=C2c1cc(OC)c(OC)c(OC)c1,0.0418,0.0543,0.0249,5.85,–,–,–
COc1ccc(/C=C\c2cc(OC)c(OC)c(OC)c2)cc1O [COMBRETASTATIN A4],2.23,4.55,3.27,–,–,–,–
COc1ccc(/C=C\c2cc(OC)c(OC)c(OC)c2)cc1OP(=O)(O)O [FOSBRETABULIN DISODIUM],1.94,1.19,3.23,< 4.40,–,–,–
